Assay results: paper PMC5651230, “TMC2 Modifies Permeation Properties of the Mechanoelectrical Transducer Channel in Early Postnatal Mouse Cochlear Outer Hair Cells” (Frontiers in Molecular Neuroscience, 2017)

Tests used:
[1] = molecular target: T1, MET channel of Tmc2−/− outer hair cells (TMC1-containing channel) (Mus musculus, UniProt Q8R4P5); assay: whole-cell patch clamp of OHC, block of MET current (fluid jet), Hill fit; assay type: cell-based; conditions: extracellular DHS, -81 mV, 1.3 mM Ca2+, pH 7.5, 20-25 °C; permeant open-channel pore blocker; native channel complex of Tmc2 knockout OHCs (P5-P6); read-out: KD
T1 construct: native MET channel complex in apical cochlear OHCs (P5-P6) of Tmc2 knockout mice; TMC1 the remaining TMC; full composition not known; with LHFPL tetraspan subfamily member 5 protein; Transmembrane inner ear expressed protein
T1 sequence (Q8R4P5 1-757): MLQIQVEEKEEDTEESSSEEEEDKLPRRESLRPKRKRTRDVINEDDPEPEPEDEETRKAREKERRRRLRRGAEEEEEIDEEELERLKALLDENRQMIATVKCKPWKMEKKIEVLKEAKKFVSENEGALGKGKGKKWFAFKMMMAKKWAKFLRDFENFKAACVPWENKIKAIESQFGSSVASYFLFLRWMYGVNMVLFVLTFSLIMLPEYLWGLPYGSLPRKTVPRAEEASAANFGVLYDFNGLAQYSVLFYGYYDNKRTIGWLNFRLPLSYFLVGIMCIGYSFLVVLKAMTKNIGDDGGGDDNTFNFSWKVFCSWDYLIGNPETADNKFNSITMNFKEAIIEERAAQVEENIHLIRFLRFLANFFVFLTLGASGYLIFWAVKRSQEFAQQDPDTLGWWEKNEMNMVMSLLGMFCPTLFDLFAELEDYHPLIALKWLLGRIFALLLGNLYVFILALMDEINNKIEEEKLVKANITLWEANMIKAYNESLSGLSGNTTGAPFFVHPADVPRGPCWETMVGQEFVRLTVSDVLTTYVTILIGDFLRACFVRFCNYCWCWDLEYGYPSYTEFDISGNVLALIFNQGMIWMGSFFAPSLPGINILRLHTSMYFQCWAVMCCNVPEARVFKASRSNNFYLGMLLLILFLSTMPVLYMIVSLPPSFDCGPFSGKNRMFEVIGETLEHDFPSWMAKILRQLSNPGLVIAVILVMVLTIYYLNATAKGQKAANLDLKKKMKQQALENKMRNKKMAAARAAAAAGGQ

[2] = test system: T2, MET channel of Tmc2+/− outer hair cells (TMC1 and TMC2); assay: as above; assay type: cell-based, Mus musculus; conditions: extracellular DHS, -81 mV, 1.3 mM Ca2+, pH 7.5, 20-25 °C; permeant open-channel pore blocker; native channel complex of Tmc2 heterozygous OHCs (P5-P6); read-out: KD
T2 construct: native MET channel complex in apical cochlear OHCs (P5-P6) of heterozygous control mice; mixture of TMC1 and TMC2 in unknown proportion; with LHFPL tetraspan subfamily member 5 protein; Transmembrane inner ear expressed protein

IC50 [1]: 5.9 ± 0.2 µM | IC50 [2]: 9.1 ± 0.4 µM
SMILES: CN[C@@H]1[C@H](O[C@H]2[C@H](O[C@H]3[C@H](O)[C@@H](O)[C@H](NC(=N)N)[C@@H](O)[C@@H]3NC(=N)N)O[C@@H](C)[C@]2(O)CO)O[C@@H](CO)[C@H](O)[C@H]1O [dihydrostreptomycin]
